The text below walks through data of ChEMBL document CHEMBL1201862, “PubChem BioAssay data set” (2004).

Holding throughout (assay): NCI-60 cell line screen, 48 h
For assay [1], the system named is A549.
Assay [2] relates to BT-549.
Assay [3] deals with CAKI-1.
For assay [4], the system named is COLO 205.
Assay [5] deals with EKVX.
Assay [6] concerns HCT-116.
For assay [7], the system named is HCT-15.
Assay [8] concerns Hs-578T.
For assay [9], the system named is MCF7.
Assay [10] relates to MDA-MB-231.
Assay [11] has as its system MOLT-4.
Assay [12] has as its system Malme-3M.
Assay [13] concerns OVCAR-3.
For assay [14], the system named is SF-268.
For assay [15], the system named is SF-295.
Assay [16] relates to SK-MEL-28.
For assay [17], the system named is SK-MEL-5.
Assay [18] deals with SNB-19.
Assay [19] deals with SNB-75.
Assay [20] relates to SW-620.

SMILES strings stand for the structures.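 Briefly, cells in 96-well plates were exposed to five compound concentrations for 48 h, and endpoints were estimated by linear interpolation. GI50 marks 50% less growth.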 Active and inactive are the calls of the source. No stated cut-off is given here; in the data, active = GI50 up to about 1.1 µM and inactive = higher. Where only a bound is given, the exact number is not on record here.

As to `Nc1ccc(-c2ccc(Nc3cc(S(=O)(=O)O)c(N)c4c3C(=O)c3ccccc3C4=O)cc2)c(S(=O)(=O)O)c1`, the GI50 in assay [1], in assay [2], in assay [3], in assay [4], in [5] and in assay [6] was > 100 µM (inactive) in each case. Moreover, the GI50 in assay [7] is greater than 100 µM; in assay [8], > 100 µM (inactive); in [9], > 100 µM (inactive); in [10], > 100 µM (inactive); in assay [11], 41.8 µM (inactive); in [12] it was > 100 µM (inactive). For the same compound, the GI50 in [13], in [14], in assay [15], in [16], in [17] and in assay [18] was > 100 µM (inactive) throughout. In addition, the GI50 in [19] and in assay [20] was > 100 µM (inactive) each time.

For `c1cncc(CNCc2cccnc2)c1`, the GI50 in assay [1], in [2], in [3], in [4], in assay [5] and in assay [6] was > 100 µM (inactive) each time. The GI50 in [7] was greater than 100 µM; in assay [8], > 100 µM (inactive); in [9] it was > 100 µM (inactive); in assay [10], > 100 µM (inactive); in assay [11], > 100 µM (inactive); in assay [12], > 100 µM (inactive). Besides, the GI50 in assay [13], in [14], in assay [15], in assay [16], in [17] and in assay [18] was > 100 µM (inactive) each time. For the same compound, the GI50 in [19] and in assay [20] was > 100 µM (inactive) in each case.

As for `N#CC(C#N)=CNC(=S)c1ccncc1`, the GI50 is > 100 µM (inactive) in assay [1]; 11.2 µM (inactive) in [2]; 46.7 µM (inactive) in assay [3]; 45.1 µM (inactive) in assay [4]; > 100 µM (inactive) in assay [5]; 53.6 µM (inactive) in assay [6]. In addition, the GI50 in [7] is 37.4 µM; in assay [8], 57.4 µM (inactive); in assay [9], 76.9 µM (inactive); in assay [10], > 100 µM (inactive); in assay [11] it was 64.3 µM (inactive); in assay [12], > 100 µM (inactive). In addition, the GI50 in [13] is 0.117 µM (active); in [14], 61.1 µM (inactive); in assay [15], > 100 µM (inactive); in [16], > 100 µM (inactive); in [17], 48.4 µM (inactive); in assay [18], 41.6 µM (inactive). Besides, the GI50 in assay [19] is 35.4 µM (inactive); in [20] it was 64.9 µM (inactive).

For `CCCCCCCC(=O)OC[n+]1ccc(-c2c(COC(=O)NC(C)C)c(COC(=O)NC(C)C)c3n2CCC3)cc1`, the GI50 is 63.8 µM (inactive) in assay [1]; > 52.7 µM (inactive) in [2]; 18.6 µM (inactive) in assay [3]; 48.9 µM (inactive) in assay [4]; > 79.6 µM (inactive) in [5]; 25.5 µM (inactive) in assay [6]. For the same compound, the GI50 in [7] is 52.4 µM; in [8], 52.6 µM (inactive); in [9], 30.2 µM (inactive); in assay [10], 48.8 µM (inactive); in assay [11], 13.3 µM (inactive); in assay [12], 44.9 µM (inactive). Moreover, the GI50 in [13] is > 62.7 µM (inactive); in [14] it was 25.8 µM (inactive); in [15] it was 53.5 µM (inactive); in assay [16] it was > 100 µM (inactive); in [17], 34.8 µM (inactive); in assay [18], 88.9 µM (inactive). Besides, the GI50 in assay [19] is 42.3 µM (inactive); in [20] it was 23.2 µM (inactive).

For the compound `OC1COC(n2c3ccc(Br)cc3c3ccc4c5ccccc5[nH]c4c32)C(O)C1O` (centres undefined), the GI50 is 2.61 µM (inactive) in assay [1]; 1.1 µM (active) in [2]; 3.13 µM (inactive) in assay [3]; 1.89 µM (inactive) in [4]; 4.59 µM (inactive) in assay [5]; 3.55 µM (inactive) in assay [6]. In addition, the GI50 in assay [7] was 3.37 µM; in assay [8], 3.18 µM (inactive); in [9] it was 2.99 µM (inactive); in [10] it was 2.14 µM (inactive); in assay [11] it was 3.05 µM (inactive); in [12], 3.88 µM (inactive). Also, the GI50 in assay [13] was 3.37 µM (inactive); in [14], 3.84 µM (inactive); in [15], 0.538 µM (active); in assay [16], 1.13 µM (inactive); in assay [17] it was 2.26 µM (inactive); in assay [18], 10.7 µM (inactive). The values for the GI50 in [19] and in assay [20] were 3.24 µM (inactive) and 0.644 µM (active), respectively.

In the case of `CC[C@@H]1CC[C@@H]2[C@H](CC[C@]3(C)[C@@H](O)CC[C@@H]23)[C@H]1C(=O)O`, the GI50 in [1], in assay [2], in assay [3], in assay [4], in [5] and in assay [6] was > 100 µM (inactive) throughout. The GI50 was greater than 100 µM in assay [7]; > 100 µM (inactive) in assay [8]; > 100 µM (inactive) in assay [9]; > 100 µM (inactive) in assay [10]; > 100 µM (inactive) in assay [11]; > 100 µM (inactive) in [12]. The GI50 in [13], in [14], in assay [15], in assay [16], in assay [17] and in assay [18] was > 100 µM (inactive) throughout. Further, the GI50 in assay [19] was 18.8 µM (inactive); in assay [20] it was > 100 µM (inactive).

Take `Cc1ccsc1C(=O)C(CC(=O)c1cccs1)c1ccsc1` (centres undefined): the GI50 in [1] was > 100 µM (inactive); in [2] it was 66.5 µM (inactive); in [3] it was > 100 µM (inactive); in assay [4], > 100 µM (inactive); in assay [5] it was 79.6 µM (inactive); in assay [6] it was 16.1 µM (inactive). The GI50 in assay [7] was greater than 100 µM; in assay [8], > 100 µM (inactive); in assay [9] it was 76.2 µM (inactive); in assay [10], 77.6 µM (inactive); in assay [11], 77.3 µM (inactive); in [12], > 100 µM (inactive). In addition, the GI50 is > 100 µM (inactive) in assay [13]; > 100 µM (inactive) in assay [14]; > 100 µM (inactive) in [15]; > 100 µM (inactive) in assay [16]; 28.2 µM (inactive) in assay [17]; > 100 µM (inactive) in assay [18]. The GI50 in assay [19] and in [20] was > 100 µM (inactive) each time.

In the case of `CC12CC(=O)Nc3ccccc3N1C(c1ccccc1)=NO2` (centres undefined), the GI50 in assay [1], in [2], in assay [3], in assay [4], in [5] and in [6] was > 100 µM (inactive) each time. Besides, the GI50 in assay [7] was greater than 100 µM; in [8], > 100 µM (inactive); in assay [9] it was > 100 µM (inactive); in assay [10], > 100 µM (inactive); in [11], > 100 µM (inactive); in assay [12], > 100 µM (inactive). Moreover, the GI50 in [13], in [14], in assay [15], in assay [17], in assay [18] and in assay [19] was > 100 µM (inactive) in each case. Also, the GI50 in assay [20] is > 100 µM (inactive).

In the case of `Clc1nc(-c2ccccc2)nc(Cl)c1Cl`, the GI50 in [1] was 15.4 µM (inactive); in assay [2], 20.6 µM (inactive); in assay [3], 3.09 µM (inactive); in [4], 10.3 µM (inactive); in [5], 16.2 µM (inactive); in [6] it was 5.6 µM (inactive). The GI50 in [7] was 7.38 µM; in [8], 15 µM (inactive); in assay [9], 8.15 µM (inactive); in assay [10], 13.7 µM (inactive); in assay [11], 3.1 µM (inactive); in assay [12] it was 5.31 µM (inactive). Also, the GI50 is 8.38 µM (inactive) in assay [13]; 11.6 µM (inactive) in assay [14]; 17.3 µM (inactive) in assay [15]; 16.8 µM (inactive) in assay [16]; 13.4 µM (inactive) in [17]; 17.1 µM (inactive) in [18]. For the same compound, the results for the GI50 in [19] and in assay [20] were 15.7 µM (inactive) and 4.98 µM (inactive), respectively.

As for `CC(C)(C)c1ccc(-c2nc3ccc(Cl)cc3c(=O)o2)cc1`, the GI50 in [1] was 11.9 µM (inactive); in assay [2], 21.2 µM (inactive); in assay [3], 25.4 µM (inactive); in [4], 17.7 µM (inactive); in [5], 20.6 µM (inactive); in assay [6], 15.6 µM (inactive). Also, the GI50 in assay [7] was 13.9 µM; in [8] it was 30.5 µM (inactive); in assay [9] it was 25 µM (inactive); in [10] it was 0.324 µM (active); in assay [11], 16.9 µM (inactive); in assay [12] it was 16.6 µM (inactive). For the same compound, the GI50 was 7.78 µM (inactive) in [13]; 22 µM (inactive) in [14]; 13 µM (inactive) in [15]; 21.3 µM (inactive) in assay [16]; 12.8 µM (inactive) in assay [17]; 14.5 µM (inactive) in assay [18]. The GI50 was 26.8 µM (inactive) in assay [19] and 26.4 µM (inactive) in assay [20].
